According to PMC6472001, “Phenolic Compounds from Humulus lupulus as Natural Antimicrobial Products: New Weapons in the Fight against Methicillin Resistant Staphylococcus aureus, Leishmania mexicana and Trypanosoma brucei Strains” (Molecules, 2019):

Columns and labels:
Type in all cases: cell-based
[1] = system: Streptococcus agalactiae T38.2; test: Second screening, agar dilution MIC
Protocol: (§1) Clinical bacterial isolates from human samples collected in Lille (France) and some collection strains were used. The first screening step on pathogenic bacteria was carried out with crude hydro-alcoholic extracts of different hop parts (Table 1). The second screening was performed using sub-extracts of cones on Gram-positive bacteria, including methicillin-sensitive Staphylococcus aureus (MSSA) and methicillin-resistant Staphylococcus aureus […] (Table 2). These tests were carried out on Petri dishes, Mueller-Hinton Agar (MHA) (Oxoid, UK) was mixed with the plant extract solution in MeOH at 5% (solvent control: 5% MeOH). Final extract concentrations in Petri dishes ranged from 1250 to 4.9 µg/mL. A multi-headed inoculator allowed spotting bacterial strains at 10^5 CFU/mL in cysteinated Ringer (CR) solution (Merck®, France). Minimal Inhibitory Concentrations (MICs) were visually determined after 24 h of incubation at 37 °C.

[2] = system: Streptococcus agalactiae T25.7; test: Second screening, agar dilution MIC
Protocol: as §1

[3] = system: Streptococcus agalactiae T40A2; test: Second screening, agar dilution MIC
Protocol: as §1

[4] = system: Staphylococcus aureus 8147; test: Second screening, agar dilution MIC; details: Table 2
Protocol: as §1

[5] = system: Streptococcus agalactiae 13225; test: Second screening, agar dilution MIC
Protocol: as §1

[6] = system: Staphylococcus aureus CIP 224; test: Second screening, agar dilution MIC
Protocol: as §1

[7] = system: Staphylococcus aureus T25.9; test: Second screening, agar dilution MIC
Protocol: as §1

[8] = system: Staphylococcus aureus T1.1; test: Second screening, agar dilution MIC
Protocol: as §1

[9] = system: Staphylococcus aureus T28.1; test: Second screening, agar dilution MIC
Protocol: as §1

[10] = system: Enterococcus faecalis T26-B7; test: Second screening, agar dilution MIC
Protocol: as §1

[11] = system: Staphylococcus epidermidis 5001; test: Second screening, agar dilution MIC; details: Table 2
Protocol: as §1

[12] = system: Staphylococcus lugdunensis T26A3; test: Second screening, agar dilution MIC; details: Table 2
Protocol: as §1

[13] = system: Enterococcus faecalis T34-2; test: Second screening, agar dilution MIC
Protocol: as §1

Corynebacterium T25-17 [14] = test: Second screening, agar dilution MIC; details: Table 2
Protocol: as §1

[15] = system: Enterococcus faecalis T39-C11; test: Second screening, agar dilution MIC
Protocol: as §1

[16] = system: Staphylococcus aureus T47A12; test: Second screening, agar dilution MIC
Protocol: as §1

[17] = system: Staphylococcus aureus T6.7; test: Second screening, agar dilution MIC
Protocol: as §1

[18] = system: Staphylococcus aureus T26A4; test: Second screening, agar dilution MIC
Protocol: as §1

[19] = system: Staphylococcus pettenkoferi T3.3; test: Second screening, agar dilution MIC
Protocol: as §1

[20] = system: Staphylococcus aureus T36B1; test: Second screening, agar dilution MIC
Protocol: as §1

[21] = system: Staphylococcus aureus T25.10; test: Second screening, agar dilution MIC
Protocol: as §1

[22] = system: Enterococcus faecalis T37A4; test: Second screening, agar dilution MIC
Protocol: as §1

[23] = system: Staphylococcus saprophyticus 08237; test: Second screening, agar dilution MIC
Protocol: as §1

[24] = system: Streptococcus agalactiae 13226; test: Second screening, agar dilution MIC
Protocol: as §1

[25] = system: Staphylococcus aureus T25.3; test: Second screening, agar dilution MIC
Protocol: as §1

[26] = system: Staphylococcus aureus 8146; test: First screening, agar dilution MIC
Protocol: as §1

[27] = system: Citrobacter freundii 11041; test: First screening, agar dilution MIC
Protocol: as §1

[28] = system: Klebsiella pneumoniae 11016; test: First screening, agar dilution MIC
Protocol: as §1

[29] = system: Staphylococcus aureus 8147; test: First screening, agar dilution MIC
Protocol: as §1

[30] = system: Enterobacter cloacae 11051; test: First screening, agar dilution MIC
Protocol: as §1

[31] = system: Serratia marcescens 11056; test: First screening, agar dilution MIC
Protocol: as §1

[32] = system: Klebsiella pneumoniae 11017; test: First screening, agar dilution MIC
Protocol: as §1

[33] = system: Staphylococcus warneri T12A12; test: First screening, agar dilution MIC
Protocol: as §1

[34] = system: Acinetobacter baumannii 9010; test: First screening, agar dilution MIC
Protocol: as §1

[35] = system: Staphylococcus epidermidis 5001; test: First screening, agar dilution MIC
Protocol: as §1

Proteus mirabilis 11060 = test: First screening, agar dilution MIC
Protocol: as §1

[36] = system: Mycobacterium smegmatis 5003; test: First screening, agar dilution MIC
Protocol: as §1

[37] = system: Staphylococcus lugdunensis T26A3; test: First screening, agar dilution MIC
Protocol: as §1

[38] = system: Enterobacter cloacae 11050; test: First screening, agar dilution MIC
Protocol: as §1

[39] = system: Staphylococcus epidermidis 10282; test: First screening, agar dilution MIC
Protocol: as §1

Salmonella sp. 11033 = test: First screening, agar dilution MIC
Protocol: as §1

Corynebacterium T25-17 [40] = test: First screening, agar dilution MIC
Protocol: as §1

[41] = system: Pseudomonas aeruginosa 8131; test: First screening, agar dilution MIC
Protocol: as §1

[42] = system: Streptococcus dysgalactiae T46C14; test: First screening, agar dilution MIC
Protocol: as §1

Escherichia coli 8157 = test: First screening, agar dilution MIC
Protocol: as §1

[43] = system: Acinetobacter baumannii 9011; test: First screening, agar dilution MIC
Protocol: as §1

Enterococcus sp. 8153 = test: First screening, agar dilution MIC
Protocol: as §1

[44] = system: Streptococcus agalactiae T25-7; test: First screening, agar dilution MIC
Protocol: as §1

[45] = system: Pseudomonas aeruginosa ATCC 27583; test: First screening, agar dilution MIC
Protocol: as §1

[46] = system: Escherichia coli ATCC 25922; test: First screening, agar dilution MIC
Protocol: as §1

[47] = system: Serratia marcescens 11057; test: First screening, agar dilution MIC
Protocol: as §1

[48] = system: Enterobacter cloacae 11053; test: First screening, agar dilution MIC
Protocol: as §1

[49] = system: Providencia stuartii 11038; test: First screening, agar dilution MIC
Protocol: as §1

Escherichia coli 8138 = test: First screening, agar dilution MIC
Protocol: as §1

[50] = system: Stenotrophomonas maltophilia; test: First screening, agar dilution MIC
Protocol: as §1

[51] = system: Enterococcus faecalis C159-6; test: First screening, agar dilution MIC
Protocol: as §1

[52] = system: Streptococcus agalactiae T53C2; test: First screening, agar dilution MIC
Protocol: as §1

[53] = system: Citrobacter freundii 11042; test: First screening, agar dilution MIC
Protocol: as §1

Measured: Susceptibility to AMX

CC1(C)S[C@@H]2[C@H](NC(=O)[C@H](N)c3ccc(O)cc3)C(=O)N2[C@H]1C(=O)O [AMX, Amoxicillin]
R (R > 16): [7] | [9] | [16] | [17] | [20] | [21] | [25] | [28] | [30] | [31] | [32] | [34] | Proteus mirabilis 11060 | [38] | Salmonella sp. 11033 | [41] | Escherichia coli 8157 | [43] | [45] | [47] | [48] | Escherichia coli 8138 | [50] | [51] | [53]
I: [26] | [46]
S (Amoxicillin (AMX) S ≤ 4): all other assays above
